Like-named read-outs stand apart in the source and are kept apart here.
What was measured:
rat adenine binding GPCR = molecular target: T1, rat adenine binding GPCR (Rattus norvegicus, UniProt Q7TN49); assay: FLIPR Ca2+ transient assay, agonism, HEK293/Gq chimera cells transiently transfected with rat adenine binding GPCR/pcDNA3; format: cell-based; parameters: The full length reading frame was inserted into the mammalian expression vector pcDNA3; expressed in transfected cells; host or cells: HEK293 cells stably transfected with pLEC/Gqi or pLEC/Gqo
T1 sequence (Q7TN49 1-304): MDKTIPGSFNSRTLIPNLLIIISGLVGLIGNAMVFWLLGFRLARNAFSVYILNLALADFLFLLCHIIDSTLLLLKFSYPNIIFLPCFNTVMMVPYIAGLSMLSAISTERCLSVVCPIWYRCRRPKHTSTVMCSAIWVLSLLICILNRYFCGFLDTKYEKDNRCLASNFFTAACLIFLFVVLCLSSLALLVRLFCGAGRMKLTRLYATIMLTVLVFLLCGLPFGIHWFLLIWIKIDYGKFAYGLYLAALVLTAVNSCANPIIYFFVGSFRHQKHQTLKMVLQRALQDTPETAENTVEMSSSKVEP
Text: This assay is based around an instrument called a FLuorescence Imaging Plate Reader ((FLIPR®), Molecular Devices Corporation). In its most common configuration, it excites and measures fluorescence emitted by fluorescein-based dyes. It uses an argon-ion laser to produce high power excitation at 488 nm of a fluorophore, a system of optics to rapidly scan the over the bottom of a 96-/384-well plate and a sensitive, cooled CCD camera to capture the emitted fluorescence. It also contains a 96-/384-well pipetting head allowing the instrument to deliver solutions of test agents into the wells of a 96-/384-well plate. The FLIPR assay is designed to measure fluorescence signals from populations of cells before, during and after addition of compounds, in real time, from all 96-/384-wells simultaneously. […] As described below, calcium transients in cells transfected with adenine binding GPCR were measured using the FLIPR assay in order to measure activation of the receptors by various substrates in order to determine the natural ligand of the receptor.
The full length reading frame was inserted into the mammalian expression vector pcDNA3 (Invitrogen, Carlsbad, Calif., U.S.A.) and the resulting expression construct was transiently transfected with the FuGENE 6 reagent (Roche Molecular Biochemicals, Mannheim, Germany) into HEK293 cells stably transfected (E. Bender, unpublished) with pLEC/Gqi or pLEC/Gqo (Molecular Devices, Sunnyvale, Calif., U.S.A.). The cells were loaded with Fluo-4 (Molecular Probes, Eugene, Oreg., U.S.A.) according to the recommendations of the supplier. […]
Using the FLIPR assay as above, calcium transients were measured in both sets of cells with the transients attributable to the novel GPCR measured as the difference between the two transients. Results are illustrated in FIG. 4. […]

[1] = molecular target: T2, adenine binding rat receptor (Rattus norvegicus, UniProt Q7TN49); assay: [35S]GTPγS binding on CHO membranes permanently transfected; format: biochemical; conditions: for % stimulation: above basal
T2 construct: expressed in transfected cells; host or cells: CHO cells, transient, lipofectamine PLUS
T2 sequence (Q7TN49 1-304): T1 sequence (Q7TN49 1-304)
Method: The lipofectamine PLUS method was also used for permanent transfection of CHO cells with slight modifications. One day after the transfection, the medium was replaced with selection medium which was replaced every 2 to 3 days. The cells were grown till colonies appeared (between day 8 and 10) and split to a 175 cm^2 culture flask for further culture and experiments. Monoclonal cell lines were prepared by limited dilution seeding in 96 well plates.
a) Methods—Determination of [^35S ]GTPγS binding to the G-proteins was carried out according to a modified procedure of Lazareno (Methods Mol. Biol., 83:107-116, 1997). These experiments were performed for a first functional evaluation of the receptor on the level of a membrane preparation.
The assay mixture contained 10 and 35 μg of membrane protein for the transfected and wild type CHO cells, respectively.
For testing agonistic activity, 175 μl of diluted membranes was pre-incubated in the buffer described above together with 25 μl of buffer and 25 μl of varying concentrations of the compound in a total volume of 225 μl. After a 20 minute pre-incubation period at 30° C., 25 μl of [^35S]GTPγS was added to a final concentration of 0.25 nM and the assay mixtures were further incubated for 20 minutes at 30° C. Bound and free [^35S]GTPγS were separated by rapid filtration over an UniFilter™-96, GF/B™ under reduced pressure using Filtermate 196 filtration (Packard Company (Netherlands). The amount of bound radioactivity on the filter unit was determined after drying of the filters and scintillant addition (Microscint-O; Packard Company) by liquid scintillation counting.
Basal [^35S]GTPγS binding was measured in absence of compounds. Stimulation by agonist was calculated as the percentage increase above basal levels. The sigmoid agonist concentration-response curves were analyzed by non-linear regression using the GraphPad Prism program. The different concentration points were run in duplicates and the reported data were retrieved from independent experiments.
The first functional characterization of the monoclonal cell lines was performed in [^35S]GTPγS binding experiments. The maximum stimulation of [^35S] GTPγS binding by adenine for each of the 4 selected clones was much higher ([…]) than the that found in the transient transfections confirming the expected better coupling in permanent cell lines (see table 5).

adenine binding GPCR = molecular target: T3, adenine binding GPCR (Rattus norvegicus, UniProt Q7TN49); assay: FLIPR Ca2+ transient assay, antagonism of 30 nM adenine challenge; format: cell-based; conditions: 15 minutes incubation with compound (30 μM to 30 pM), then challenge with 30 nM adenine
T3 construct: The full length reading frame was inserted into the mammalian expression vector pcDNA3; expressed in transfected cells; host or cells: HEK293 cells stably transfected with pLEC/Gqi or pLEC/Gqo
T3 sequence (Q7TN49 1-304): T1 sequence (Q7TN49 1-304)
Text: The full length reading frame was inserted into the mammalian expression vector pcDNA3 (Invitrogen, Carlsbad, Calif., U.S.A.) and the resulting expression construct was transiently transfected with the FuGENE 6 reagent (Roche Molecular Biochemicals, Mannheim, Germany) into HEK293 cells stably transfected (E. Bender, unpublished) with pLEC/Gqi or pLEC/Gqo (Molecular Devices, Sunnyvale, Calif., U.S.A.). The cells were loaded with Fluo-4 (Molecular Probes, Eugene, Oreg., U.S.A.) according to the recommendations of the supplier.
After a 15 minutes incubation at room temperature, the same cells were challenged with 30 nM adenine, to detect antagonistic properties of molecules added in the first round of superfusion.

calcium transients (agonistic activity) (rat adenine binding GPCR; HEK293/Gaqo cells, 3.3 nM-33 μM, difference to empty-vector cells) | EC50 ([1]; 4 selected clones, read-out: mean EC50) [nM] | EC50 ([1]; Clone 26 (MP1), read-out: pEC50 (converted)) [nM] | EC50 ([1]; Clone 28 (MP9), read-out: pEC50 (converted)) [nM] | EC50 ([1]; Clone 29 (MP9), read-out: pEC50 (converted)) [nM] | EC50 ([1]; Clone 30 (MP9), read-out: pEC50 (converted)) [nM] | % stimulation ([1]; Clone 26 (MP1)) [%] | % stimulation ([1]; Clone 28 (MP9)) [%] | % stimulation ([1]; Clone 29 (MP9)) [%] | % stimulation ([1]; Clone 30 (MP9)) [%] | antagonistic effect (adenine binding GPCR) | agonism of nucleoside and nucleotide derivatives of adenine (rat adenine binding GPCR; at high concentrations (>3.3 μM)) | Compound
dose responsive calcium transient | 62 | 64.6 | 49 | 79.4 | 57.5 | 632 | 657 | 527 | 534 |  |  | Nc1ncnc2nc[nH]c12 [Adenine, adenine]
 |  |  |  |  |  |  |  |  |  | did not elicit antagonistic effects | weak partial agonism | Nc1ncnc2c1ncn2[C@@H]1O[C@H](COP(=O)(O)O)[C@@H](O)[C@H]1O [AMP]
